The values that follow are results of earlier work, collected in publication PMC10583817 (RSC Medicinal Chemistry, 2023).

The data set concerns WIN site of WDR5. Conditions: cited from earlier work.

As to `Cc1nc(F)ccc1-c1cc(Cn2ccn(C)c2=N)cc(C(=O)NCc2ccc(Cl)c(Cl)c2)c1` [WIN-IN-4], the binding activity result is “sub-nanomole”.
